From patent US20160361391A1, “REDUCTION OF TRAF1 LEVELS COMBINED WITH NUTRIENT STRESS FOR TREATING LYMPHOCYTE-RELATED CANCERS” (THE GOVERNING COUNCIL OF THE UNIVERSITY OF TORONTO, priority 2014, published 2016)

Legend:
Assay type in all cases: cell-based, human
TRAF1 [1] = experiment: TRAF1 levels by flow cytometry in knockdown RAJI; settings: RAJI knockdown cells versus control sample
Text: (§1) (A) Whole cell extracts from RAJI cells treated with control shRNA (shCTRL) or TRAF2 shRNA (shTRAF2) were immunoblotted for TRAF2 or as a loading control, GAPDH. (B) Annexin V staining of RAJI after Erwinase treatment (1 IU/ml; 24 hrs) in shCTRL, shTRAF1 or shTRAF2 cells.
(§2) TRAF2 knockdown also decreases RAJI survival in the presence of Erwinase (FIG. 14). […] On the Y axis, is indicated knockdown of TRAF2, PKN1, TRAF1 or control sample. The vertical dashed line indicates the peak level of expression in the control sample for comparison with the knockdown cells.

Erk and NF-κB activation = experiment: Flow cytometry for pERK and phospho P65 subunit of NFkB; settings: RAJI knockdown cells versus control sample
Text: as §1, §2

RAJI cells [2] = experiment: Annexin V / propidium iodide cell death by flow cytometry, RAJI; settings: 1 IU/ml Erwinase
Experimental: RAJI cells stably expressing control shRNA (shCtrl), TRAF1 shRNA (shTRAF1) or PKN1 shRNA (shPKN1) were left untreated or treated with 1 IU/ml Erwinase for the indicated time points. For cells treated with Erwinase for longer than 24 hrs, cell culture media was replaced every 24 hrs and 1 IU/ml Erwinase was added to ensure the continued absence of glutamine. Cells were then stained with Annexin V-FITC (ebioscience) and Propidium Iodide (PI) and then analyzed by flow cytometry (BD LSR Fortessa). The upper right quadrant (Q2) indicates the fraction dead cells.
as §1
(§3) It was next asked what the effect of reducing TRAF1 and its signalling partner TRAF2 in lymphoma had on cell proliferation and survival. […] To determine whether this effect was due to death of the lymphoma cells, Annexin V and propidium iodide (PI) staining of the lymphomas were analyzed at different times after transfer to Erwinase containing medium. Annexin V binds to phosphatidyl serine, which becomes exposed on the surface of cells as they undergo apoptosis. Then, cells become permeable to propidium iodide upon death. […] The slightly greater effect on cell death of direct TRAF1 knockdown compared to PKN1 knockdown is consistent with the smaller effect of PKN1 knockdown on TRAF1 levels compared to direct TRAF1 knockdown with shTRAF1.

TRAF2 = TRAF2 levels by immunoblot during nutrient stress; settings: RAJI cells; for TRAF2 levels during Erwinase treatment: 1 IU/ml Erwinase, up to 6 hrs
Experimental: (B) Wild type (WT), shCtrl or shTRAF1 RAJI cells were treated with 1 IU/ml Erwinase for 1, 3 or 6 hrs and immunoblotted for TRAF2 and TRAF1.
Right: RAJI cells stably expressing shCtrl or shPKN1 were treated with 1 IU/ml Erwinase for 0, 3 or 6 hrs and lysates were immunoblotted for TRAF2, or as a loading control, GAPDH.
To test the effect of lower levels of TRAF1 on the level of TRAF2 in lymphoma, WT and shTRAF1 RAJI cells were incubated under conditions of nutrient stress (low glutamine). […] In order to mimic conditions of nutrient stress in a manner that can be useful therapeutically, the licensed drug Erwinase (described above) was utilized. […] Of note, in contrast to the work with primary cells, the loss of TRAF2 when TRAF1 is limiting occurred without a need to add reagents to specifically engage a TNFR family member, but rather occurs spontaneously upon nutrient stress.

[3] = system: Chronic lymphocytic leukemia cell line MEC2; experiment: Annexin V / propidium iodide cell death by flow cytometry, MEC2; settings: MEC2, 1 IU/ml Erwinase, 0, 18, 24 or 42 hrs
Experimental: MEC2 cells were transfected with control shRNA (shCTRL), shTRAF1 or shPKN1 and then were left untreated or treated with 1 IU/ml Erwinase for 0, 18, 24 or 42 hrs. Cell death was measured by flow cytometry for Annexin V and propidium iodide (PI), where double staining for Annexin V and Propidium iodide (PI) is used to indicate cell death.

RAJI cells [4] = experiment: MTT cell viability / growth assay; settings: for cell growth / proliferation with Erwinase (MTT) / tumour growth rate (MTT): RAJI; for cell growth / proliferation with Erwinase (MTT): 1 IU/ml Erwinase; for tumour growth rate (MTT): complete culture medium, no Erwinase
Experimental: MTT reagent was then solubilized with DMSO and absorbance was measured by ELISA plate reader at 560 nm and referenced to absorbance at 620 nm. Data are plotted as fold change relative to untreated shCtrl RAJI cells.
as §3
FIG. 7 provides a rationale for a screen for a PKN1 inhibitor that synergizes with Erwinase: In particular, the assay is used to look for inhibitors that act at nanomolar concentration to reduce cell survival. […] Inhibitors that reduce the signal in the MTT assay by at least 3 fold relative to Erwinase alone will be identified as potential PKN1 inhibitors. This initial screen is amenable to a 96 well plate assay in which each drug candidate is tested on control RAJI cells with and without Erwinase as well as shPKN1 RAJI cells with Erwinase. Candidate drugs that lower the signal on control RAJI cells only in the presence but not in the absence of Erwinase, and have no effect on PKN1 knockdown cells treated with Erwinase, represent candidates for kinase inhibitors that act through PKN1 inhibition to reduce TRAF1 levels. The candidates can then be verified by determining the inhibitory effects on TRAF1 levels.

mTORC1 = experiment: pS6K / pS6 level as marker of mTORC1 activation; settings: RAJI lymphoma cells
Text: Left: Levels of pS6K in RAJI control cells. Right: Levels of pS6K in RAJI shTRAF1. Upper panels show pS6K, lower panels show GAPDH to control for equal loading. B. Schematic showing link between nutrient stress, mTORC1 and pS6. C. Left: Representative flow cytometry analysis of TRAF1 and phospho-S6 expression in Raji shCTRL and Raji shTraf1 cells. […] FMO is fluorescence minus one control stain. Right: Correlation plot of TRAF1 versus phospho-S6 expression in lymphoma and CLL cell lines (gated on live cells). All flow cytometry is based on gating on live cells (using live/dead staining marker).
In an effort to understand the mechanism of synergy between lowering TRAF1 levels and increased sensitivity to Erwinase, the activity of mTORC1, a key sensor of the nutrient state of the cells, was examined. Nutrient stress inhibits the activation of mTORC1, a key regulator of proliferation, metabolism and cell survival.^35 PhosphoS6K (pS6K), a downstream target of mTORC1, can be used as a marker of mTORC1 activation. […] However, unexpectedly, TRAF1 knockdown cells had lower basal level of pS6K prior to treatment, perhaps explaining the synergistic effect of TRAF1 knockdown with Erwinase treatment (FIG. 11A—compare right to left western blots). […] Further, a correlation between the level of TRAF1 in the cell and the activity of mTORC1 as measured by pS6 levels was shown (FIG. 11C).

TRAF1 [5] = experiment: TRAF1 levels by Western blot after shRNA knockdown
Experimental: Left: RAJI cells were stably transfected with control small hairpin (sh) RNA or with shRNA designed to knockdown expression of TRAF1 (shRNAs obtained from Open Biosystems (TRC library number: TRCN0000056885 sequence: […]) (SEQ ID NO:1)). TRAF1 levels in RAJI expressing shCtrl or with shTRAF1 were analyzed by Western blot. Protein loading was analyzed based on GAPDH levels. Right: TRAF1 levels in B-chronic lymphocytic leukemia (CLL) lines and Daudi CD5+ (a Burkitt's lymphoma with CLL like properties) were determined by Western blot.
Left: Schematic diagram of TRAF1 indicating site of phosphorylation by PKN1 as identified by Kato et al.^29 Middle: RAJI cells were stably transfected with control shRNA (shCtrl), TRAF1 shRNA (shTRAF1) or PKN1 shRNA (shPKN1) (obtained from Open Biosystems (TRC library number: TRCN0000001484 sequence: […] (SEQ ID NO:2)). Right: Daudi cells were transduced with control shRNA (shCTRL), shRNA targeting TRAF1 (shTRAF1) or shRNA targeting PKN1 (shPKN1). Cells were analyzed for levels of TRAF1, tubulin or GAPDH by western blot. “Pool” refers to bulk transfected cell lines without subcloning.
Based on the finding that primary T cells lacking TRAF1 are sensitive to loss of TRAF2 when 4-1 BB signalling is induced during nutrient stress, the role of the reduction of TRAF1 levels combined with nutrient stress on B lymphomas was tested. […]

[6] = system: panel of lymphoma and the CLL line MEC2; experiment: Erwinase sensitivity versus TRAF1 expression in cell line panel; settings: 1 IU/ml Erwinase, 24 hours; lines with medium/hi TRAF1 expression
Experimental: Correlation plot of TRAF1 expression versus Erwinase sensitivity. Cell lines were treated with 1 IU/ml Erwinase for 24 hours and cell death was measured by AnnexinV/PI staining. Erwinase sensitivity is measured as % of cells AnnexinV^+, PI^+ and/or AnnexinV^+/PI^+ cells. Left: Erwinase sensitivity versus TRAF1 expression (measured by flow cytometry, gated on live cells) for a panel of lymphoma and the CLL line MEC2.
PKN1 stabilizes TRAF1 and TRAF1 serine 146, a target of PKN1 is required for TRAF1 stability (see above). As lowering TRAF1 by PKN1 knockdown increases sensitivity to nutrient stress, knockdown of PKN1 with RNA interference or anti-sense approaches, or inhibition of PKN1 using chemical inhibitors could be used to increase sensitivity to nutrient stress. In order to develop this strategy, biomarker needs to be developed to predict which cancers would be susceptible. To this end, TRAF1 protein expression was measured in a panel of human lymphomas and the CLL cell line MEC2 by flow cytometry and these levels were correlated with sensitivity to the nutrient stress-inducing drug Erwinase. […] However, in cells that express TRAF1 above an MFI of 1500, there was a strong correlation between TRAF1 levels and resistance to cell death induced by nutrient stress (FIG. 13). Cancers with these properties are candidates for therapy with PKN1 in combination with nutrient stress.

shTRAF2: shRNA to TRAF2, mature antisense ATGGCGTGGAATCTGCAAGGG
TRAF1 levels (flow cytometry) (TRAF1 [1]): lowers TRAF1 levels
constitutive Erk and NF-κB activation (Erk and NF-κB activation): reduces constitutive Erk and NF-κB activation
sensitivity to Erwinase induced death (Annexin V/PI) (RAJI cells [2]): increased susceptibility to Erwinase-mediated nutrient stress

shTRAF1: shRNA designed to knockdown expression of TRAF1, sequence CGTGTGTTTGAGAACATTG (Open Biosystems TRC library)
constitutive Erk and NF-κB activation (Erk and NF-κB activation): reduces constitutive Erk and NF-κB activation
TRAF2 level under low glutamine (TRAF2; nutrient stress (low glutamine), versus WT): TRAF2 was lost
sensitivity to Erwinase induced death (Annexin V/PI) [3]: increases the sensitivity of the Chronic lymphocytic leukemia cell line MEC2 to Erwinase induced death
cell growth / proliferation with Erwinase (MTT) (RAJI cells [4]): sensitizes lymphoma to growth inhibition by Erwinase
tumour growth rate (MTT) (RAJI cells [4]): no impact on the tumour growth rate
level of pS6K / pS6 (mTORC1): levels of pS6 are lower
TRAF1 levels (TRAF1 [5]; RAJI stably expressing shRNA, versus control treated RAJI): substantially lower levels of TRAF1
sensitivity to Erwinase induced death (Annexin V/PI) (RAJI cells [2]): Increases the Sensitivity of RAJI to Erwinase Induced Death

shPKN1: shRNA targeting PKN1, sequence CTGATGTGTGAGAAGCGGA (Open Biosystems TRC library)
TRAF2 levels during Erwinase treatment (TRAF2): sensitizes RAJI cells to TRAF2 loss during nutrient stress
sensitivity to Erwinase induced death (Annexin V/PI) [3]: increases the sensitivity of the Chronic lymphocytic leukemia cell line MEC2 to Erwinase induced death
cell growth / proliferation with Erwinase (MTT) (RAJI cells [4]): sensitizes lymphoma to growth inhibition by Erwinase
tumour growth rate (MTT) (RAJI cells [4]): no impact on the tumour growth rate
TRAF1 levels (TRAF1 [5]; RAJI and Daudi cells with shRNA to PKN1, versus shCtrl): decreases TRAF1 levels
sensitivity to Erwinase induced death (Annexin V/PI) (RAJI cells [2]): Increases the Sensitivity of RAJI to Erwinase Induced Death

B1: Erwinase: Licensed drug derived from the Asparaginase of Erwinia chrysanthemi; nutrient stress-inducing agent (protein, UniProt P06608 22-348, looked up)
L-asparaginase: ADKLPNIVILATGGTIAGSAATGTQTTGYKAGALGVDTLINAVPEVKKLANVKGEQFSNMASENMTGDVVLKLSQRVNELLARDDVDGVVITHGTDTVEESAYFLHLTVKSDKPVVFVAAMRPATAISADGPMNLLEAVRVAGDKQSRGRGVMVVLNDRIGSARYITKTNASTLDTFKANEEGYLGVIIGNRIYYQNRIDKLHTTRSVFDVRGLTSLPKVDILYGYQDDPEYLYDAAIQHGVKGIVYAGMGAGSVSVRGIAGMRKAMEKGVVVIRSTRTGNGIVPPDEELPGLVSDSLNPAHARILLMLALTRTSDPKVIQEYFHTY
TRAF2 levels during Erwinase treatment (TRAF2): significant reduction in TRAF2 levels only when TRAF1 was reduced by shRNA
Erwinase sensitivity (% AnnexinV+ and/or PI+ cells) versus TRAF1 expression [6]: inverse correlation between TRAF1 levels and Erwinase sensitivity
cell growth / proliferation with Erwinase (MTT) (RAJI cells [4]): arrest in cell growth
impact of Erwinase alone in MTT assay (RAJI cells [4]; control RAJI, 1 IU/ml, 48 hr): minimal impact
level of pS6K / pS6 (mTORC1): reduced the level of pS6K
